Values after ≈ are worked out from the molar mass of the structure shown.
Legend:
Mycobacterium leprae [1] = assay: Anti-leprotic activity against rifampicin-susceptible Mycobacterium leprae subcultures at 4 weeks assessed as ATP level per 10^7 cells at 0.05 mg/L measured by bioluminescence assay (reference value: 425 +/- 64 pg); type: functional
Mycobacterium leprae [2] = assay: Anti-leprotic activity against rifampicin-susceptible Mycobacterium leprae primary cultures at 4 weeks assessed as ATP level per 10^7 cells at 0.1 mg/L measured by bioluminescence assay (reference value: 332 +/- 46 pg); type: functional
Mycobacterium leprae [3] = assay: Anti-leprotic activity against rifampicin-susceptible Mycobacterium leprae subcultures at 4 weeks assessed as [3H]thymidine uptake per 5 times 10^7 cells at 0.025 mg/L incubated for 24 hrs (reference value: 1.41 +/- 0.20 pmol); type: functional
Mycobacterium leprae [4] = assay: Anti-leprotic activity against rifampicin-susceptible Mycobacterium leprae primary cultures at 4 weeks assessed as ATP level per 10^7 cells at 0.2 mg/L measured by bioluminescence assay (reference value: 332 +/- 46 pg); type: functional
Mycobacterium leprae [5] = assay: Anti-leprotic activity against rifampicin-susceptible Mycobacterium leprae primary cultures at 4 weeks assessed as [3H]thymidine uptake per 5 times 10^7 cells at 0.05 mg/L incubated for 24 hrs (reference value: 1.05 +/- 0.16 pmol); type: functional
Mycobacterium leprae [6] = assay: Anti-leprotic activity against rifampicin-susceptible Mycobacterium leprae subcultures at 4 weeks assessed as [3H]thymidine uptake per 5 times 10^7 cells at 0.05 mg/L incubated for 24 hrs (reference value: 1.41 +/- 0.20 pmol); type: functional
Mycobacterium leprae [7] = assay: Anti-leprotic activity against rifampicin-susceptible Mycobacterium leprae subcultures at 4 weeks assessed as ATP level per 10^7 cells at 0.1 mg/L measured by bioluminescence assay (reference value: 425 +/- 64 pg); type: functional
Mycobacterium leprae [8] = assay: Anti-leprotic activity against rifampicin-susceptible Mycobacterium leprae subcultures at 4 weeks assessed as [3H]thymidine uptake per 5 times 10^7 cells at 0.1 mg/L incubated for 24 hrs (reference value: 1.41 +/- 0.20 pmol); type: functional
Mycobacterium leprae [9] = assay: Anti-leprotic activity against rifampicin-susceptible Mycobacterium leprae subcultures at 4 weeks assessed as [3H]thymidine uptake per 5 times 10^7 cells at 0.2 mg/L incubated for 24 hrs (reference value: 1.41 +/- 0.20 pmol); type: functional
Mycobacterium leprae [10] = assay: Anti-leprotic activity against rifampicin-susceptible Mycobacterium leprae primary cultures at 4 weeks assessed as [3H]thymidine uptake per 5 times 10^7 cells at 0.1 mg/L incubated for 24 hrs (reference value: 1.05 +/- 0.16 pmol); type: functional
Mycobacterium leprae [11] = assay: Anti-leprotic activity against rifampicin-susceptible Mycobacterium leprae primary cultures at 4 weeks assessed as [3H]thymidine uptake per 5 times 10^7 cells at 0.025 mg/L incubated for 24 hrs (reference value: 1.05 +/- 0.16 pmol); type: functional
Mycobacterium leprae [12] = assay: Anti-leprotic activity against rifampicin-susceptible Mycobacterium leprae subcultures at 4 weeks assessed as ATP level per 10^7 cells at 0.2 mg/L measured by bioluminescence assay (reference value: 425 +/- 64 pg); type: functional
Mycobacterium leprae [13] = assay: Anti-leprotic activity against rifampicin-susceptible Mycobacterium leprae subcultures at 4 weeks assessed as ATP level per 10^7 cells at 0.025 mg/L measured by bioluminescence assay (reference value: 425 +/- 64 pg); type: functional
Mycobacterium leprae [14] = assay: Anti-leprotic activity against rifampicin-susceptible Mycobacterium leprae primary cultures at 4 weeks assessed as ATP level per 10^7 cells at 0.025 mg/L measured by bioluminescence assay (reference value: 332 +/- 46 pg); type: functional
Mycobacterium leprae [15] = assay: Anti-leprotic activity against rifampicin-susceptible Mycobacterium leprae primary cultures at 4 weeks assessed as [3H]thymidine uptake per 5 times 10^7 cells at 0.2 mg/L incubated for 24 hrs (reference value: 1.05 +/- 0.16 pmol); type: functional
Mycobacterium leprae [16] = assay: Anti-leprotic activity against rifampicin-susceptible Mycobacterium leprae primary cultures at 4 weeks assessed as ATP level per 10^7 cells at 0.05 mg/L measured by bioluminescence assay (reference value: 332 +/- 46 pg); type: functional
Mycobacterium leprae [17] = assay: Anti-leprotic activity against Mycobacterium leprae infected in BALB/c weanling mouse assessed as bacteria killing at 100 mg/kg, ip administrated for 60 days and measured after 1 year by most probable number technique analysis relative to control; type: functional
Mycobacterium leprae [18] = assay: Anti-leprotic activity against Mycobacterium leprae infected in BALB/c weanling mouse assessed as bacteria killing at 100 mg/kg, ip administrated for 60 days and measured after 1 year by Spearman-Karber technique analysis relative to control; type: functional
[19] = tested on: Mycobacterium tuberculosis; assay: Antimycobacterial activity against Mycobacterium tuberculosis H37Rv infected in CF-1 mouse assessed as change in survival time at 11 mg/kg administrated daily for 14 days with food relative to control; type: functional
[20] = tested on: Mycobacterium tuberculosis; assay: Antimycobacterial activity against Mycobacterium tuberculosis H37Rv infected in CF-1 mouse assessed as change in survival time at 3 mg/kg administrated daily for 14 days with food relative to control; type: functional
[21] = tested on: Mycobacterium tuberculosis; assay: Antimycobacterial activity against Mycobacterium tuberculosis H37Rv infected in CF-1 mouse assessed as change in survival time at 5 mg/kg administrated daily for 14 days with food relative to control; type: functional
[22] = tested on: Mycobacterium tuberculosis; assay: Antitubercular activity against Mycobacterium tuberculosis H37Rv ATCC 27294 assessed as inhibition of [3H]-thymidine incorporation relative to control; type: functional
[23] = tested on: Mycobacterium tuberculosis; assay: Antitubercular activity against Mycobacterium tuberculosis H37Rv ATCC 27294 assessed as growth inhibition at 6.25 ug/ml by microplate alamar blue assay relative to control; type: functional
[24] = tested on: Mycobacterium tuberculosis; assay: Antitubercular activity against Mycobacterium tuberculosis H37Rv ATCC 27294 assessed as inhibition of [3H]-thymidine incorporation; type: functional, organism-based
Monocyte [25] = assay: Antiinflammatory activity in human monocytes assessed as inhibition of LPS-induced TNFaplha production at 50 uM preincubated for 15 mins followed by LPS addition and measured after 4 hrs by ELISA relative to control; type: functional
[26] = Cytotoxicity against LPS-induced human monocytes assessed as cell viability at 0.5 uM by tryphan blue staining based assay relative to control; set-up: species or system Monocyte; details: read-out: Activity
Monocyte [27] = assay: Antiinflammatory activity in human monocytes assessed as inhibition of LPS-induced TNFaplha production at 5 uM preincubated for 15 mins followed by LPS addition and measured after 4 hrs by ELISA relative to control; type: functional
Monocyte [28] = assay: Antiinflammatory activity in human monocytes assessed as inhibition of LPS-induced TNFaplha production at 25 uM preincubated for 15 mins followed by LPS addition and measured after 4 hrs by ELISA relative to control; type: functional
[29] = Cytotoxicity against LPS-induced human monocytes assessed as cell viability at 25 uM by tryphan blue staining based assay relative to control; set-up: species or system Monocyte; details: read-out: Activity
Monocyte [30] = assay: Antiinflammatory activity in human monocytes assessed as inhibition of LPS-induced TNFaplha production at 0.5 uM preincubated for 15 mins followed by LPS addition and measured after 4 hrs by ELISA relative to control; type: functional
[31] = Cytotoxicity against LPS-induced human monocytes assessed as cell viability at 50 uM by tryphan blue staining based assay relative to control; set-up: species or system Monocyte; details: read-out: Activity
[32] = Cytotoxicity against LPS-induced human monocytes assessed as cell viability at 5 uM by tryphan blue staining based assay relative to control; set-up: species or system Monocyte; details: read-out: Activity
Mycobacterium leprae [33] = assay: Antimicrobial activity against Mycobacterium leprae; type: functional
Mycobacterium leprae [34] = assay: Anti-leprotic activity against Mycobacterium leprae subcultures at 4 weeks assessed as [3H]thymidine uptake per 5 times 10^7 cells at 15.0 mg/L (reference value: 1.28 +/- 0.14 pmol); type: functional
Mycobacterium leprae [35] = assay: Anti-leprotic activity against Mycobacterium leprae primary cultures at 4 weeks assessed as ATP level per 10^7 cells at 15.0 mg/L measured by bioluminescence assay (reference value: 314 +/- 46 pg); type: functional
Mycobacterium leprae [36] = assay: Anti-leprotic activity against Mycobacterium leprae primary cultures at 4 weeks assessed as [3H]thymidine uptake per 5 times 10^7 cells at 5.0 mg/L (reference value: 0.95 +/- 0.01 pmol); type: functional
Mycobacterium leprae [37] = assay: Anti-leprotic activity against Mycobacterium leprae primary cultures at 4 weeks assessed as ATP level per 10^7 cells at 5.0 mg/L measured by bioluminescence assay (reference value: 314 +/- 46 pg); type: functional
Mycobacterium leprae [38] = assay: Anti-leprotic activity against Mycobacterium leprae primary cultures at 4 weeks assessed as ATP level per 10^7 cells at 10.0 mg/L measured by bioluminescence assay (reference value: 314 +/- 46 pg); type: functional
Mycobacterium leprae [39] = assay: Anti-leprotic activity against Mycobacterium leprae primary cultures at 4 weeks assessed as [3H]thymidine uptake per 5 times 10^7 cells at 10.0 mg/L (reference value: 0.95 +/- 0.01 pmol); type: functional
Mycobacterium leprae [40] = assay: Anti-leprotic activity against Mycobacterium leprae subcultures at 4 weeks assessed as ATP level per 10^7 cells at 15.0 mg/L measured by bioluminescence assay (reference value: 462 +/- 64 pg); type: functional
Mycobacterium leprae [41] = assay: Anti-leprotic activity against Mycobacterium leprae primary cultures at 4 weeks assessed as [3H]thymidine uptake per 5 times 10^7 cells at 15.0 mg/L (reference value: 0.95 +/- 0.01 pmol); type: functional
Mycobacterium leprae [42] = assay: Anti-leprotic activity against Mycobacterium leprae subcultures at 4 weeks assessed as ATP level per 10^7 cells at 5.0 mg/L measured by bioluminescence assay (reference value: 462 +/- 64 pg); type: functional
Mycobacterium leprae [43] = assay: Anti-leprotic activity against Mycobacterium leprae subcultures at 4 weeks assessed as ATP level per 10^7 cells at 10.0 mg/L measured by bioluminescence assay (reference value: 462 +/- 64 pg); type: functional
Mycobacterium leprae [44] = assay: Anti-leprotic activity against Mycobacterium leprae subcultures at 4 weeks assessed as [3H]thymidine uptake per 5 times 10^7 cells at 10.0 mg/L (reference value: 1.28 +/- 0.14 pmol); type: functional
Mycobacterium leprae [45] = assay: Anti-leprotic activity against Mycobacterium leprae subcultures at 4 weeks assessed as [3H]thymidine uptake per 5 times 10^7 cells at 5.0 mg/L (reference value: 1.28 +/- 0.14 pmol); type: functional

**Q.** Which results are given for CO[C@H]1/C=C/O[C@@]2(C)Oc3c(C)c(O)c4c(=O)c(c5oc6cc(N7CCN(CC(C)C)CC7)cc(O)c6nc-5c4c3C2=O)NC(=O)/C(C)=C\C=C\[C@H](C)[C@H](O)[C@@H](C)[C@@H](O)[C@@H](C)[C@H](OC(C)=O)[C@@H]1C [RIFALAZIL]?
**A.** Activity (Mycobacterium leprae [1]): 0 pg; Activity (Mycobacterium leprae [2]): 0 pg; Activity (Mycobacterium leprae [3]): 0.73 pmol; Activity (Mycobacterium leprae [4]): 0 pg; Activity (Mycobacterium leprae [5]): 0 pmol; Activity (Mycobacterium leprae [6]): 0 pmol; Activity (Mycobacterium leprae [7]): 0 pg; Activity (Mycobacterium leprae [8]): 0 pmol; Activity (Mycobacterium leprae [9]): 0 pmol; Activity (Mycobacterium leprae [10]): 0 pmol; Activity (Mycobacterium leprae [11]): 0.72 pmol; Activity (Mycobacterium leprae [12]): 0 pg; Activity (Mycobacterium leprae [13]): 211 pg; Activity (Mycobacterium leprae [14]): 227 pg; Activity (Mycobacterium leprae [15]): 0 pmol; Activity (Mycobacterium leprae [16]): 0 pg

**Q.** With NCC[C@H](O)C(=O)N[C@@H]1C[C@H](N)[C@@H](O[C@H]2O[C@H](CN)[C@@H](O)[C@H](O)[C@H]2O)[C@H](O)[C@H]1O[C@H]1O[C@H](CO)[C@@H](O)[C@H](N)[C@H]1O [AMIKACIN] as the molecule, how does the Activity (Mycobacterium leprae [17]) read?
**A.** 97.3%

**Q.** What about the Activity (Mycobacterium leprae [18]) of the same molecule?
**A.** 96%

**Q.** What does the source list for Brc1ccc(/N=N/c2ccc(NCCCN3CCCCC3)c3c2CCCC3)cc1?
**A.** MST [19]: 38 days; MST [20]: 11 days; MST [21]: 19 days

**Q.** Which results are given for OC[C@H]1O[C@@H](n2cnc3c(-c4ccccc4)ncnc32)[C@H](O)[C@@H]1O?
**A.** inhibition (INH) [22]: 99%; inhibition at 6.25 µg/mL [23]: 14%; IC50 [24]: 0.4 µg/mL (≈ 1.22 µM)

**Q.** Which inhibition at 50 µM (Monocyte [25]) does the source give for O=C1c2ccccc2C(=O)N1c1ccc(F)c(F)c1 here?
**A.** 100%

**Q.** And the viability at 0.5 µM [26]?
**A.** 92%

**Q.** And the inhibition at 5 µM (Monocyte [27])?
**A.** 84%

**Q.** What about the inhibition at 25 µM (Monocyte [28]) of the same molecule?
**A.** 100%

**Q.** What about the viability at 25 µM [29] of the same molecule?
**A.** 88%

**Q.** And the inhibition at 0.5 µM (Monocyte [30])?
**A.** < 10%

**Q.** What about the viability at 50 µM [31] of the same molecule?
**A.** 78%

**Q.** What about the viability at 5 µM [32] of the same molecule?
**A.** 95%

**Q.** With COc1cc(Cc2cnc(N)nc2N)cc(OC)c1Br [BRODIMOPRIM] as the molecule, how does the MIC (Mycobacterium leprae [33]) read?
**A.** 0.025 µg/mL (≈ 0.0737 µM)

**Q.** What about the Activity (Mycobacterium leprae [34]) of the same molecule?
**A.** 0 pmol

**Q.** What about the Activity (Mycobacterium leprae [35]) of the same molecule?
**A.** 0 pg

**Q.** And the Activity (Mycobacterium leprae [36])?
**A.** 0.88 pmol

**Q.** And the Activity (Mycobacterium leprae [37])?
**A.** 296 pg

**Q.** And the Activity (Mycobacterium leprae [38])?
**A.** 108 pg

**Q.** What about the Activity (Mycobacterium leprae [39]) of the same molecule?
**A.** 0.24 pmol

**Q.** And the Activity (Mycobacterium leprae [40])?
**A.** 0 pg

**Q.** What about the Activity (Mycobacterium leprae [41]) of the same molecule?
**A.** 0 pmol

**Q.** What about the Activity (Mycobacterium leprae [42]) of the same molecule?
**A.** 346 pg

**Q.** And the Activity (Mycobacterium leprae [43])?
**A.** 109 pg

**Q.** What about the Activity (Mycobacterium leprae [44]) of the same molecule?
**A.** 0.27 pmol

**Q.** And the Activity (Mycobacterium leprae [45])?
**A.** 1.1 pmol

Reference: ChEMBL document CHEMBL4613212, “Insights of synthetic analogues of anti-leprosy agents” (Bioorg Med Chem, 2019)
